Values joined by “and” are separate entries in the source; they are usually repeats but may differ in a detail not shown here. Equal entries are not always repeated.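 Assay format: 96-well plates, 48-hour exposure. GI50: concentration for 50% inhibition of growth.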 Active and inactive are the calls of the source. No stated cut-off is given here; in the data, active = GI50 up to about 1.1 µM and inactive = higher.
What was measured:
Assay in all cases: NCI tumour cell line growth inhibition, 48 h
[1] = system: A549
[2] = system: CCRF-CEM
[3] = system: DMS-114
[4] = system: HCT-116
[5] = system: HCT-15
[6] = system: HL-60
[7] = system: KM-20L2
[8] = system: NCI-H23
[9] = system: NCI-H460
[10] = system: OVCAR-4
[11] = system: SF-295
[12] = system: SK-MEL-2
[13] = system: SK-MEL-5
[14] = system: SR
[15] = system: UACC-257
[16] = system: NCI-H226
[17] = system: RPMI-8226

| SMILES | GI50 [1] | GI50 [2] | GI50 [3] | GI50 [4] | GI50 [5] [µM] | GI50 [6] | GI50 [7] | GI50 [8] | GI50 [9] | GI50 [10] | GI50 [11] | GI50 [12] | GI50 [13] | GI50 [14] | GI50 [15] | GI50 [16] | GI50 [17] |
| --- | --- | --- | --- | --- | --- | --- | --- | --- | --- | --- | --- | --- | --- | --- | --- | --- | --- |
| C[C@@H]1C[C@@H]2C(=O)N(c3ccccc3)C(=O)[C@@H]2c2[nH]c3ccc(Br)cc3c21 | 33.6 µM (inactive) | > 100 µM (inactive) | 53 µM (inactive) | 30.2 µM (inactive) | 34.3 | 26.8 µM (inactive) | > 100 µM (inactive) | 89.7 µM (inactive) | 42.3 µM (inactive) | 21.2 µM (inactive) | 32.4 µM (inactive) | 55.3 µM (inactive) | 50.1 µM (inactive) | 42 µM (inactive) | > 100 µM (inactive) |  |  |
| C=CC1(C(=O)O)CCC(C(C)(C)C)CC1 (stereo not drawn) | > 100 µM (inactive) |  | > 100 µM (inactive) | > 100 µM (inactive) | > 100 | > 100 µM (inactive) | > 100 µM (inactive) | > 100 µM (inactive) | > 100 µM (inactive) | > 100 µM (inactive) | > 100 µM (inactive) | > 100 µM (inactive) | > 100 µM (inactive) | > 100 µM (inactive) | > 100 µM (inactive) | > 100 µM (inactive) | > 100 µM (inactive) |
| COc1cc2c(Cc3cc(OCc4ccccc4)ccc3N)nccc2c(OC)c1OC | > 10 µM (inactive) | > 10 µM (inactive) | > 10 µM (inactive) | > 10 µM (inactive) | > 10 | > 10 µM (inactive) | > 10 µM (inactive) | > 10 µM (inactive) | > 10 µM (inactive) |  | > 10 µM (inactive) | > 10 µM (inactive) | > 10 µM (inactive) | > 10 µM (inactive) | > 10 µM (inactive) | > 10 µM (inactive) | > 10 µM (inactive) |
| Cc1ccc(S(=O)(=O)OCC23CCC(C4CC42)C2CC23)cc1 (stereo not drawn) | 80.4 µM (inactive) | 22.8 µM (inactive) | 37.5 µM (inactive) | 87.7 µM (inactive) | > 100 | 17.7 µM (inactive) | > 100 µM (inactive) | 48.8 µM (inactive) | 88.1 µM (inactive) | 28.1 µM (inactive) | 50.8 µM (inactive) |  | 31.6 µM (inactive) | 38.5 µM (inactive) | 7.01 µM (inactive) | 95.7 µM (inactive) | 36.3 µM (inactive) |
| O=c1ncccn1[C@@H]1O[C@H](CO)[C@@H](O)[C@@H]1F | > 100 µM (inactive) |  | > 100 µM (inactive) and > 58.7 µM (inactive) |  |  | > 100 µM (inactive) | > 100 µM (inactive) | > 100 µM (inactive) |  | > 100 µM (inactive) | > 100 µM (inactive) | > 100 µM (inactive) | > 100 µM (inactive) | > 68.2 µM (inactive) | > 100 µM (inactive) | > 100 µM (inactive) | > 100 µM (inactive) |
| COc1cc(/C=C2\NC(=S)C3Cc4c(OC)c(C)c(OC)c(OC)c4C2N3C)c(OC)c(C)c1OC (stereo not drawn) | 50.6 µM (inactive) | 38.7 µM (inactive) | 27.5 µM (inactive) | 33.7 µM (inactive) |  | 25.2 µM (inactive) | 64 µM (inactive) | 86.1 µM (inactive) | 14.9 µM (inactive) | > 100 µM (inactive) | 50.5 µM (inactive) | 36.2 µM (inactive) | 24.5 µM (inactive) | 10.4 µM (inactive) | 22.2 µM (inactive) | 22.6 µM (inactive) | 25.6 µM (inactive) |
| O=c1[nH]cnc2c1nnn2C1C=C(CO)C(O)C1O (stereo not drawn) | > 100 µM (inactive) | > 100 µM (inactive) | 59.2 µM (inactive) | 53.7 µM (inactive) | > 100 |  | > 100 µM (inactive) | > 100 µM (inactive) | > 100 µM (inactive) | > 100 µM (inactive) | > 100 µM (inactive) | > 100 µM (inactive) | > 100 µM (inactive) | > 100 µM (inactive) | > 100 µM (inactive) | > 100 µM (inactive) | > 100 µM (inactive) |
